Test results taken from publication PMC9171646 (Proceedings of the National Academy of Sciences of the …, 2022).
“Also recorded” adds a separate entry of the source.

What was measured:
[1] = tested on: EF-G-bound translocating 70S ribosome; assay: Presteady-state smFRET imaging of translocation; assay type: biochemical, E. coli; conditions: for Final state after prolonged stalling: 400 ms time resolution, extended imaging (Fig. S4A); for Effect on translocation: EF-G(GTP) delivered with 10 µM drug to PRE ribosomes, 25 °C; for Affinity for ribosome-bound EF-G vs EF-G in solution: inferred from smFRET with EF-G in excess
EF-G = conditions: cited from earlier work
EF-G(GDP)-ribosome INT2 = conditions: cited from earlier work
eEF2 = conditions: cited from earlier work
[2] = tested on: E. coli EF-G-70S ribosome; assay: Cryo-EM structure of EF-G-ArgB-70S complex; assay type: binding
[3] = tested on: EF-G from P. aeruginosa (EF-G1); conditions: free P. aeruginosa EF-G1; cited from earlier work
[4] = tested on: EF-G-ribosome translocation intermediate (INT2); assay: Presteady-state cryo-EM structure of EF-G-ArgB-INT2 translocation intermediate; assay type: binding, E. coli
P. aeruginosa EF-G1 = conditions: cited from earlier work
Pseudomonas aeruginosa = conditions: cited from earlier work

Molecule	Final state after prolonged stalling [1]	Effect on translocation [1]	Resistance by EF-G mutations (EF-G)	Binding site on EF-G (EF-G(GDP)-ribosome INT2)	Binding site on eEF2 (eEF2)	Inhibition of ribosomes with EF-G in excess ([1]; EF-G in fivefold excess over ArgB (10 µM ArgB, 50 µM EF-G))	Affinity for ribosome-bound EF-G vs EF-G in solution [1]	Affinity for ribosome-bound EF-G vs EF-G in solution ([1]; listed as Argyrin B)	Binding site on EF-G ([2]; 50 µM ArgB, 0.4 µM 70S, 1 µM EF-G, 500 µM GTP)	State in which EF-G is trapped ([2]; nucleotide density compatible with GDP, switch-I disordered)	Direct binding to EF-G1, binding site [3]	Binding site on EF-G in translocation intermediate ([4]; 10 µM ArgB, 5 µM EF-G, 1 mM GTP)	Contacts of ArgB in EF-G binding pocket ([4]; EF-G-ArgB-INT2, E. coli numbering)	Resistance by mutation of Pro414 (P. aeruginosa EF-G1; ArgB-resistant strains)	Resistance by Thr671Ala (E. coli Thr668) (P. aeruginosa EF-G1; P. aeruginosa EF-G1 domain V)	Antimicrobial activity against P. aeruginosa (Pseudomonas aeruginosa)
CC(=O)O[C@H]1C[C@@]2(C)[C@@H](C[C@@H](O)[C@H]3[C@@]4(C)CC[C@@H](O)[C@@H](C)[C@@H]4CC[C@@]32C)/C1=C(\CCC=C(C)C)C(=O)O [FA, fusidic acid, reference compound]	eventually reached an EF-G-bound drug-stalled POST state after prolonged stalling	prolonged stalls during late steps of translocation	mutations in EF-G have been reported to confer FA resistance	between domains I and III	–	–	–	–	–	–	–	–	–	–	–	–
CO[C@H]1[C@@H](O)[C@H](O)[C@H](OC[C@@]23C[C@@H]4[C@H](C)CC[C@H]4[C@@]4(C=O)CC2C=C(C(C)C)[C@@]34C(=O)O)O[C@@H]1C [Sordarin]	–	–	–	–	binds between domains III and V of eEF2	–	–	–	–	–	–	–	–	–	–	–
argyrin B [ArgB]	eventually reached an EF-G-bound drug-stalled POST state after prolonged stalling	prolonged stalls during late steps of translocation	–	–	–	all ribosomes were inhibited	preferentially binds with high affinity to EF-G when it is bound to the ribosome; also recorded: lower affinity for EF-G in solution than on the ribosome	low affinity toward EF-G off the ribosome, but high affinity to EF-G bound to the ribosome	between domain III and V of EF-G	traps EF-G on the ribosome after GTP hydrolysis and Pi release	bind directly to EF-G from P. aeruginosa (EF-G1) with the binding site located between domains III and V	in the junction between EF-G domains III and V	van der Waals interactions with Met617, Leu660, and Met682 within domain V of EF-G and the backbone amide of Ala489 of EF-G was positioned within hydrogen bonding distance to the Sarcosine moiety	commonly mutated in ArgB-resistant strains	resistance to ArgB	at the forefront
